Values after ≈ are worked out from the molar mass of the structure shown.
Experiments:
Topoisomerase II = target: T1, Topoisomerase II (Homo sapiens, UniProt P11388); assay: Topoisomerase II assay; format: biochemical; design: key to Inhibitory activity Topoisomerase II: ∘: Inhibitory activity is present; Δ: Weak inhibitory activity is present; x: No inhibitory activity is present
T1 construct: purchased
Experimental: The inhibitory action of a test substance (Compound 3) on Topoisomerase I and Topoisomerase II was examined.
2. Topoisomerase II Assay
Assay was performed in accordance with the attachment to Topoisomerase II Assay Kit, as follows.
(1) 10×Topo II Incomplete Assay A and 10×ATP Buffer B were mixed in equal amounts to prepare 5× Complete Assay Buffer (prepared when used).
(2) Assay solution was prepared in accordance with the following table.
(3) Incubated at 37° C. for 30 minutes (4) 5 μl of 5× Stop Buffer/gel loading dye was added (5) 1 μl of 1.3 mg/mL protease K solution (prepared with distilled water) was added (final concentration of protease K is 50 μg/mL) (6) Incubated at 37° C. for 20 minute (7) Total amount was applied to 1% agarose gel (containing EtBr) and analyzed by electrophoresis using a single concentration TAE buffer (prepared with distilled water). (8) After electrophoresis, the 1% agarose gel was stained with 0.5 μg/mL EtBr solution (prepared with single concentration TAE buffer) (9) Irradiated with UV ray and photographed.

A549 (lung cancer) = assay: Evaluation of anticancer action, cell proliferation inhibition (WST-8), A549; format: cell-based; settings: Homo sapiens, A549, about 72 hours
From the text: (§1) The cell proliferation inhibitory effects of a test substance (Compound 3) on various types of cancer cells were examined.
(§2) 1. Measuring Reagent and Analysis Software
(§3) WST-8 Kit (Cat. No. 260-96165 or 260-96162; manufactured by Kishida Chemical Co., Ltd.) for counting cell number
(§4) Software for graph making and measurement of GI50 value: XLfit 5.2 (ID Business Solutions Ltd.)
(§5) 2. Cells and Culture Conditions
(§6) Five types of cells and medium (the following Table) were used. The cells were obtained from the Research Resource Bank of the Human Sciences Foundation.
(§7) On the day when a sample was to be added, the sample was weighed and a medium for each type of cells was added so as to be 500 μg/mL. Sonication was performed while warming at 37° C. for 60 minutes to be dissolved. Then, filtration was performed by a 0.22 m-filter. The 500 μg/mL-solution was diluted with the medium for each type of cells to prepare 200 μg/mL, 60 μg/mL, 20 μg/mL, 6 μg/mL, 2 μg/mL, 0.6 μg/mL and 0.2 μg/mL solutions, which were specified as two-fold concentration test solutions (the final concentrations of the test substance were 250 µg/mL, 100 μg/mL, 30 μg/mL, 10 μg/mL, 3 μg/mL, 1 μg/mL, 0.3 μg/mL, […], respectively). […]
(§8) (8) Absorbance values at 450 nm and 650 nm were measured to calculate O.D. 450 and O.D. 650. […]
(§9) ODdrug-exposed wells: absorbance of a well containing a sample […]

[1] = system: HL60 (myelocytic leukemia); assay: Evaluation of anticancer action, cell proliferation inhibition (WST-8), HL60; format: cell-based; settings: Homo sapiens, HL-60, HL60, about 96 hours
From the text: as §1, §2, §3, §4, §5, §6, §7, §8, §9

T1 sequence (P11388 whole entry): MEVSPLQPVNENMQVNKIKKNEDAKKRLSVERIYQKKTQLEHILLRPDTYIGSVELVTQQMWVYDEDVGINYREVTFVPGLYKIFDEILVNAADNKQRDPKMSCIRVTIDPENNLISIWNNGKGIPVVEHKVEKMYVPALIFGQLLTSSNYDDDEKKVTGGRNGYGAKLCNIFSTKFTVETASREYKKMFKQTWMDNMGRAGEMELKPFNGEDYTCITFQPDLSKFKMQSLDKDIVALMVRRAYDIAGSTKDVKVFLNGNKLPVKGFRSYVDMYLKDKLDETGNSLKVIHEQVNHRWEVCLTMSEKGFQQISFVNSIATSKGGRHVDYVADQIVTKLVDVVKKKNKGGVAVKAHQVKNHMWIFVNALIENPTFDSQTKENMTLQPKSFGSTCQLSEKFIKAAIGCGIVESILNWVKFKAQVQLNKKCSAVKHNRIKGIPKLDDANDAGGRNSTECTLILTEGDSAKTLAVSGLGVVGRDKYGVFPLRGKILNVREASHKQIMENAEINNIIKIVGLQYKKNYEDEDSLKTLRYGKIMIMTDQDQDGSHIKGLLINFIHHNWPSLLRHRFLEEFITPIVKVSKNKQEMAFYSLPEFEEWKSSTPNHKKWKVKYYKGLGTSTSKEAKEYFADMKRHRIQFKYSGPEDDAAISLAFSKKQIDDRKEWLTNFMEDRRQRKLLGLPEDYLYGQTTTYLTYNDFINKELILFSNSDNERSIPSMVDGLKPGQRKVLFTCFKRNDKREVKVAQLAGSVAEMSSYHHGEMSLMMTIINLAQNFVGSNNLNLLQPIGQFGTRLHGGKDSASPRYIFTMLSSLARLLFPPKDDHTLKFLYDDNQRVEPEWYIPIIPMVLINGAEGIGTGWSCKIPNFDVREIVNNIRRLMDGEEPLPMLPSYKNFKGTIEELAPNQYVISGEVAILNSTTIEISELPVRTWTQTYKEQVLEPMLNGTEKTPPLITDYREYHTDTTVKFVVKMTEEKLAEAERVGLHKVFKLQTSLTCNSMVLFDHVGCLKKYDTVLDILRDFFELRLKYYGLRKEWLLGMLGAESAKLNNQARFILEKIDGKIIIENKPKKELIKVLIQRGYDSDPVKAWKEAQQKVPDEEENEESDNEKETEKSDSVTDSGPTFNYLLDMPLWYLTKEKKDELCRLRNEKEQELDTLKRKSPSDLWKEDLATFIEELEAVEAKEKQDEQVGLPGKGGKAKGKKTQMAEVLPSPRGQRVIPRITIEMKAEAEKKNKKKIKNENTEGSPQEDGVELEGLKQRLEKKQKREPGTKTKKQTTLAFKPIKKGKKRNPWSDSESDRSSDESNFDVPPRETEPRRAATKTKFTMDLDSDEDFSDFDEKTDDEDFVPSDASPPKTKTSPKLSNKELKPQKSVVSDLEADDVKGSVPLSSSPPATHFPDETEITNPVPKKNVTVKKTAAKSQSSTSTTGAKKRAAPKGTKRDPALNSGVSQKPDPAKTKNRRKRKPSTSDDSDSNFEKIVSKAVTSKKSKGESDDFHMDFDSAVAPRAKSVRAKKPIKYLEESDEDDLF

O=C(Nc1ccc(S(F)(F)(F)(F)F)cc1)c1cc(O)c(O)c(O)c1 [Compound 3, 4-(3,4,5-trihydroxybenzoylamino)pentafluorosulfanylbenzene]
Topoisomerase II inhibitory activity (Topoisomerase II; 5, 50 and 500 μg/mL): inhibitory activity was observed | Inhibitory activity Topoisomerase II (Topoisomerase II; final concentration 0.5 μg/mL): x | Inhibitory activity Topoisomerase II (Topoisomerase II; final concentration 5 μg/mL): ∘ | Inhibitory activity Topoisomerase II (Topoisomerase II; final concentration 50 μg/mL): ∘ | Inhibitory activity Topoisomerase II (Topoisomerase II; final concentration 500 μg/mL): ∘ | GI50 (A549 (lung cancer)): 13.3 µg/mL (≈ 35.8 µM) | GI50 [1]: 1.7 µg/mL (≈ 4.58 µM)

Reference: patent publication US9682931B2, “Aryloyl(oxy or amino)pentafluorosulfanylbenzene compound, pharmaceutically acceptable salt thereof, and prodrugs thereof” (UBE INDUSTRIES, LTD., priority 2013, dated 2017)
